System: adult rat retinal ganglion cells (RGC)
Experiment: Cultured adult rat RGC survival under cytotoxic insults (Example 4)
Format: cell-based
Settings: 30 min pre-treatment, then 100 μM glutamate for 3 days
Description: Adult Sprague-Dawley rats were euthanized by CO2 asphyxiation. Their eyes were enucleated and the retinas isolated. Retinal cells were treated with of papain solution for 25 min at 37° C., then washed 3 times with 5 mL RGC culture medium (Neurobasal medium with various nutrient supplements+1% fetal calf serum). Retinal cells were dispersed by trituration. Cell suspension was placed onto poly-D-lysine- and laminin-coated 8-well chambered culture slides. The cells were then cultured in 95% air/5% CO2 at 37° C.
For glutamate-induced toxicity studies, cells were pre-treated with vehicle or the indicated compounds for 30 minutes, followed by 100 μM glutamate for 3 days.
For trophic factor withdrawal studies, three trophic factors, basic fibroblast growth factor, brain-derived neurotrophic factor, and ciliary neurotrophic factor, were removed from the culture medium. Cells were cultured in this medium with the indicated compounds for 3 days.
At the end of the incubation period, the cells were fixed and labeled for Thy-1, a RGC marker, by immunocytochemistry. Cell survival was quantified by manually counting Thy-1-positive healthy cells in each well.

C[C@]12N[C@H](Cc3ccccc31)c1ccccc12 [MK801]
RGC survival, glutamate-induced toxicity (Thy-1-positive healthy cells): prevented

Source: patent publication US7803824B2, “Use of inhibitors of Jun N-terminal kinases to treat glaucoma” (Alcon, Inc., priority 2004, dated 2010)
